# Paper PMC7904550, “Application of grouping and read-across for the evaluation of parabens of different chain lengths with a particular focus on endocrine properties” (Archives of Toxicology, 2021)
# Experiments:
# Wistar rats [1] = experiment: 90-day repeated dose oral toxicity study (OECD TG 408); assay type: in vivo, rat; conditions: for NOAEL, 90-day repeated-dose toxicity: OECD 408 v 2018, oral gavage
# From the text: (§1) Healthy and specific pathogen-free male and female (non-pregnant and nulliparous) Wistar Crl: WI(Han) rats were obtained from Charles River Laboratories (Germany). […] Upon arrival at BSL BIOSERVICE, the animals underwent an acclimatisation period of at least 5 days, and they were approximately 15–16 weeks old at the onset of the treatment period.
# Wistar rats [2] = experiment: Extended one-generation reproductive toxicity study (OECD TG 443); assay type: in vivo, rat; conditions: for NOAEL, EOGRTS: developmental and reproductive toxicity: OECD 443 v 2018, oral gavage
# From the text: as §1
# in vivo = conditions: for concentration at 1 h / Tmax / AUC(0-t) / Cmax: Wistar, rat, serum; for concentration at 1 h: oral; for Tmax / AUC(0-t) / Cmax: po; for AUC(0-t) / Cmax / AUC0-1 h/AUC0–t / C1h/Cmax / Clast / tlast: parent compound
# Outline: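 Test item given by oral gavage at 500 and 1000 mg/kg bw to 10 males and 10 females per dose group, following OECD TG 417. Serum parent parabens and the metabolite p-hydroxybenzoic acid were measured by […] (LOQ 10 ng/mL parabens, 130 ng/mL p-hydroxybenzoic acid). Faeces and urine were not analysed.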
# bacteria = conditions: cited from earlier work
# mammalian cells = conditions: cited from earlier work
# rats = conditions: read-across from MP; ref ECHA dissemination portal; cited from earlier work
compound,measurement,setting,value
"CCCOC(=O)c1ccc(O)cc1 [Propyl paraben, Propyl 4-hydroxybenzoate]","NOAEL, 90-day repeated-dose toxicity",Wistar rats [1],NOAEL: 1000 (OECD 408; v 2018) mg/kg body weight/day
same,"NOAEL, 90-day repeated-dose toxicity",Wistar rats [1]; listed as propyl paraben,1000 mg/kg body weight/day
same,Accessory sex organs HP,Wistar rats [1]; P0,NAE / NAE
same,Adrenals HP,Wistar rats [1]; P0,NAE / NAE
same,Adrenals weight,Wistar rats [1]; P0,NAE / NAE
same,Brain weight,Wistar rats [1]; P0,NAE / NAE
same,Cervix HP,Wistar rats [1]; P0,NAE / NAE
same,Coagulating gland HP,Wistar rats [1]; P0,NAE / NAE
same,Coagulating gland weight,Wistar rats [1]; P0,NAE / NAE
same,Epididymis HP,Wistar rats [1]; P0,NAE / NAE
same,Epididymis weight,Wistar rats [1]; P0,NAE / NAE
same,Liver weight,Wistar rats [1]; P0,NAE / NAE
same,Mammary gland HP; females,Wistar rats [1]; P0,NAE / NAE
same,Mammary gland HP; males,Wistar rats [1]; P0,NAE / NAE
same,Oestrus cyclicity,Wistar rats [1]; P0,NAE / NAE
same,Ovary HP,Wistar rats [1]; P0,NAE / NAE
same,Ovary weight,Wistar rats [1]; P0,NAE / NAE
same,Oviduct HP,Wistar rats [1]; P0,NAE / NAE
same,Pituitary HP,Wistar rats [1]; P0,NAE / NAE
same,Pituitary weight,Wistar rats [1]; P0,NAE / NAE
same,Prostate HP,Wistar rats [1]; P0,NAE / NAE
same,Prostate weight,Wistar rats [1]; P0,NAE / NAE
same,Seminal vesicles HP,Wistar rats [1]; P0,NAE / NAE
same,Seminal vesicles weight,Wistar rats [1]; P0,NAE / NAE
same,Testis HP,Wistar rats [1]; P0,NAE / NAE
same,Testis weight,Wistar rats [1]; P0,NAE / NAE
same,Thyroid HP,Wistar rats [1]; P0,NAE / NAE
same,Thyroid stimulating hormone level,Wistar rats [1]; P0,NAE / NAE
same,Thyroid weight,Wistar rats [1]; P0,NAE / NAE
same,Triiodothyronine / thyroxine level,Wistar rats [1]; P0,NAE / NAE
same,Uterus HP (with cervix),Wistar rats [1]; P0,NAE / NAE
same,Uterus weight (with cervix),Wistar rats [1]; P0,NAE / NAE
same,Vagina HP,Wistar rats [1]; P0,NAE / NAE
same,Vaginal smears,Wistar rats [1]; P0,NAE / NAE
same,Signs of systemic toxicity,Wistar rats [1]; sub-chronic (90-day) oral application,did not induce any signs of systemic toxicity
same,Developmental immunotoxicity (DIT),Wistar rats [2]; DIT cohort,did not exhibit
same,Developmental neurotoxicity (DNT),Wistar rats [2]; DNT cohort,did not exhibit DNT
same,"NOAEL, EOGRTS: developmental and reproductive toxicity",Wistar rats [2],NOAEL: 1000 (OECD 443; v 2018) mg/kg body weight/day
same,"NOAEL, EOGRTS: developmental and reproductive toxicity",Wistar rats [2]; listed as propyl paraben,1000 mg/kg body weight/day
same,Accessory sex organs HP,"Wistar rats [2]; P0, F1, (F2)",NAE / NAE
same,Adrenals HP,"Wistar rats [2]; P0, F1, (F2)",NAE / NAE
same,Adrenals weight,"Wistar rats [2]; P0, F1, (F2)",NAE / NAE
same,Age at balano-preputial separation,"Wistar rats [2]; P0, F1, (F2)",NAE / NAE
same,Age at vaginal opening,"Wistar rats [2]; P0, F1, (F2)",NAE / NAE
same,Anogenital distance,"Wistar rats [2]; P0, F1, (F2)",NAE / NAE
same,Auditory startle,"Wistar rats [2]; P0, F1, (F2)",NAE / NAE
same,Brain HP,"Wistar rats [2]; P0, F1, (F2)",NAE / NAE
same,Brain morphometric evaluation,"Wistar rats [2]; P0, F1, (F2)",NAE / NAE
same,Brain weight,"Wistar rats [2]; P0, F1, (F2)",NAE / NAE
same,Cervix HP,"Wistar rats [2]; P0, F1, (F2)",NAE / NAE
same,Coagulating gland HP,"Wistar rats [2]; P0, F1, (F2)",NAE / NAE
same,Coagulating gland weight,"Wistar rats [2]; P0, F1, (F2)",NAE / NAE
same,Colloid area (thyroid HP),"Wistar rats [2]; P0, F1, (F2)",NAE / NAE
same,Dystocia,"Wistar rats [2]; P0, F1, (F2)",NAE / NAE
same,Epididymis HP,"Wistar rats [2]; P0, F1, (F2)",NAE / NAE
same,Epididymis weight,"Wistar rats [2]; P0, F1, (F2)",NAE / NAE
same,Fertility,"Wistar rats [2]; P0, F1, (F2)",NAE / NAE
same,Foetal development,"Wistar rats [2]; P0, F1, (F2)",NAE / NAE
same,Functional observation battery,"Wistar rats [2]; P0, F1, (F2)",NAE [h] / NAE
same,Gestation length,"Wistar rats [2]; P0, F1, (F2)",NAE / NAE
same,Litter size,"Wistar rats [2]; P0, F1, (F2)",NAE / NAE
same,Litter viability,"Wistar rats [2]; P0, F1, (F2)",NAE / NAE
same,Liver weight,"Wistar rats [2]; P0, F1, (F2)",NAE / NAE
same,Mammary gland HP; females,"Wistar rats [2]; P0, F1, (F2)",NAE / NAE
same,Mammary gland HP; males,"Wistar rats [2]; P0, F1, (F2)",NAE / NAE
same,Motor activity,"Wistar rats [2]; P0, F1, (F2)",NAE / NAE
same,Nipple development,"Wistar rats [2]; P0, F1, (F2)",NAE / NAE
same,"No. of implantations, corpora lutea","Wistar rats [2]; P0, F1, (F2)",NAE / NAE
same,No. of live births,"Wistar rats [2]; P0, F1, (F2)",NAE / NAE
same,No. of ovarian follicles,"Wistar rats [2]; P0, F1, (F2)",NAE / NAE
same,Oestrus cyclicity,"Wistar rats [2]; P0, F1, (F2)",NAE / NAE
same,Offspring: learning & memory,"Wistar rats [2]; P0, F1, (F2)",NAE / NAE
same,Ovary HP,"Wistar rats [2]; P0, F1, (F2)",NAE / NAE
same,Ovary weight,"Wistar rats [2]; P0, F1, (F2)",NAE / NAE
same,Oviduct HP,"Wistar rats [2]; P0, F1, (F2)",NAE / NAE
same,Pituitary HP,"Wistar rats [2]; P0, F1, (F2)",NAE / NAE
same,Pituitary weight,"Wistar rats [2]; P0, F1, (F2)",NAE / NAE
same,Postimplantation loss,"Wistar rats [2]; P0, F1, (F2)",NAE / NAE
same,"Presence of anomalies (external, visceral, skeletal)","Wistar rats [2]; P0, F1, (F2)",NAE / NAE
same,Prostate HP,"Wistar rats [2]; P0, F1, (F2)",NAE / NAE
same,Prostate weight,"Wistar rats [2]; P0, F1, (F2)",NAE / NAE
same,Pup development,"Wistar rats [2]; P0, F1, (F2)",NAE / NAE
same,Reproduction,"Wistar rats [2]; P0, F1, (F2)",NAE / NAE
same,Seminal vesicles HP,"Wistar rats [2]; P0, F1, (F2)",NAE / NAE
same,Seminal vesicles weight,"Wistar rats [2]; P0, F1, (F2)",NAE / NAE
same,Sperm morphology,"Wistar rats [2]; P0, F1, (F2)",NAE / NAE
same,Sperm motility,"Wistar rats [2]; P0, F1, (F2)",NAE / NAE
same,Sperm numbers,"Wistar rats [2]; P0, F1, (F2)",NAE / NAE
same,Testis HP,"Wistar rats [2]; P0, F1, (F2)",NAE / NAE
same,Testis weight,"Wistar rats [2]; P0, F1, (F2)",NAE / NAE
same,Thyroid HP,"Wistar rats [2]; P0, F1, (F2)",NAE / NAE
same,Thyroid stimulating hormone level,"Wistar rats [2]; P0, F1, (F2)",NAE / NAE
same,Thyroid weight,"Wistar rats [2]; P0, F1, (F2)",NAE / NAE
same,Time to mating,"Wistar rats [2]; P0, F1, (F2)",NAE / NAE
same,Triiodothyronine / thyroxine level,"Wistar rats [2]; P0, F1, (F2)",NAE / NAE
same,Uterus HP (with cervix),"Wistar rats [2]; P0, F1, (F2)",NAE / NAE
same,Uterus weight (with cervix),"Wistar rats [2]; P0, F1, (F2)",NAE / NAE
same,Vagina HP,"Wistar rats [2]; P0, F1, (F2)",NAE / NAE
same,Vaginal smears,"Wistar rats [2]; P0, F1, (F2)",NAE / NAE
same,"Anogenital distance, female pups PND 0","Wistar rats [2]; all dose groups, within historical control, assessed as not toxicologically relevant",minimal lower absolute and relative anogenital distance
same,Clinical biochemistry parameters,"Wistar rats [2]; parental animals, assessed as not toxicologically relevant",few marginal but statistically significant differences
same,Thyroid stimulating hormone,"Wistar rats [2]; parental females (and F1 males) of high dose group, assessed as not toxicologically relevant",slight but statistically significantly higher group mean thyroid stimulating hormone values
same,Alterations of the parameters addressed in OECD TG 443,Wistar rats [2]; up to 1000 mg/kg bw/day,no toxicologically relevant alterations
same,Local reactions after gavage,Wistar rats [2]; without toxicological relevance,Transient increased salivation
same,concentration at 1 h,"in vivo; female, 500 mg/kg",68 ng/mL
same,concentration at 1 h,"in vivo; female, 1000 mg/kg",20.2 ng/mL
same,Tmax,"in vivo; female, 500 mg/kg",15 min
same,AUC(0-t),"in vivo; female, 500 mg/kg, AUC0-1 h",291 ng·h/mL
same,AUC(0-t),"in vivo; female, 500 mg/kg, AUC0–t",1120 ng·h/mL
same,Cmax,"in vivo; female, 500 mg/kg",1390 ng/mL
same,Tmax,"in vivo; female, 1000 mg/kg",10.2 min
same,AUC(0-t),"in vivo; female, 1000 mg/kg, AUC0-1 h",156 ng·h/mL
same,AUC(0-t),"in vivo; female, 1000 mg/kg, AUC0–t",317 ng·h/mL
same,Cmax,"in vivo; female, 1000 mg/kg",940 ng/mL
same,concentration at 1 h,"in vivo; male, 500 mg/kg",23 ng/mL
same,concentration at 1 h,"in vivo; male, 1000 mg/kg",62.3 ng/mL
same,Tmax,"in vivo; male, 500 mg/kg",10.2 min
same,AUC(0-t),"in vivo; male, 500 mg/kg, AUC0-1 h",94.9 ng·h/mL
same,AUC(0-t),"in vivo; male, 500 mg/kg, AUC0–t",150 ng·h/mL
same,Cmax,"in vivo; male, 500 mg/kg",345 ng/mL
same,Tmax,"in vivo; male, 1000 mg/kg",10.2 min
same,AUC(0-t),"in vivo; male, 1000 mg/kg, AUC0-1 h",175 ng·h/mL
same,AUC(0-t),"in vivo; male, 1000 mg/kg, AUC0–t",380 ng·h/mL
same,Cmax,"in vivo; male, 1000 mg/kg",735 ng/mL
same,AUC0-1 h/AUC0–t,"in vivo; 500 mg/kg, female",26%
same,C1h/Cmax,"in vivo; 500 mg/kg, female",4.9%
same,Clast,"in vivo; 500 mg/kg, female",136 ng/mL
same,tlast,"in vivo; 500 mg/kg, female",8.0 h
same,AUC0-1 h/AUC0–t,"in vivo; 500 mg/kg, male",63%
same,C1h/Cmax,"in vivo; 500 mg/kg, male",6.7%
same,Clast,"in vivo; 500 mg/kg, male",13.6 ng/mL
same,tlast,"in vivo; 500 mg/kg, male",4.0 h
same,AUC0-1 h/AUC0–t,"in vivo; 1000 mg/kg, female",49%
same,C1h/Cmax,"in vivo; 1000 mg/kg, female",2.1%
same,Clast,"in vivo; 1000 mg/kg, female",11.6 ng/mL
same,tlast,"in vivo; 1000 mg/kg, female",8.0 h
same,AUC0-1 h/AUC0–t,"in vivo; 1000 mg/kg, male",46%
same,C1h/Cmax,"in vivo; 1000 mg/kg, male",8.5%
same,Clast,"in vivo; 1000 mg/kg, male",14.3 ng/mL
same,tlast,"in vivo; 1000 mg/kg, male",8.0 h
same,Mutagenicity in bacteria classification,bacteria,Not mutagenic [c] (OECD 471; 2018)
same,Mutagenicity in mammalian cells classification,mammalian cells,Not mutagenic [c] (OECD 476; 2012)
same,Genetic toxicity in vivo (rats) classification,rats,Not clastogenic (read-across from MP)
